Reference: publication PMC1968602 (British Journal of Cancer, 1993)
Where “and” joins values, the source holds several entries; their conditions need not be identical. Identical values can stand only once. Like-named read-outs stand apart in the source and are kept apart here.

How the values were obtained:
[1] = Plasma pharmacokinetics of CPT-11 and SN-38 (HPLC), day 8 of first cycle
Protocol: (§1) All subjects gave written informed consent to the study. […] No intrapatient dose escalation was performed. […] Bone marrow aspiration was also performed in SCLC patients. […] Arrows indicate the com- pletion of infusion.

advanced lung cancer = assay: Tumour response (World Health Organization criteria) to CPT-11 plus cisplatin; format: in vivo, human
Protocol: as §1

[2] = tested on: patients with advanced lung cancer
Description: All subjects gave written informed consent to the study. […] The study was approved in advance by this hospital's Institu- tional Review Board. […] Patients who stabilised or improved received at least a second course while patients with obvious evidence of disease progression were removed from the study. Before the next course was started, the leukocyte count had to be at least 4,000fil-', and the platelet count had to be at least 100,00011-. If more than 6 weeks passed from the time of the last treatment before these criteria were satisfied, the patients were removed from the study. No intrapatient dose escalation was performed. Once the maximum tolerated dose was reached (90 mg m-2), five additional patients were treated at the preceding dose level of 80mgm2. Evaluation The stage of disease was determined by a complete medical history and physical examination, routine chest radiography, whole-lung tomography, bone scintiscanning, computed tomography of the head, chest, and abdomen, and fiberoptic bronchoscopy. Bone marrow aspiration was also performed in SCLC patients. […] Prior to the first course of treatment, a complete blood count (includ- ing a differential white cell count and platelet count), biochemistry tests (renal and hepatic function, and elec- trolytes), and urinalysis were performed. Then the blood count, biochemistry tests, urinalysis, and chest X-rays were repeated at least once a week after this initial evaluation. Other investigations were repeated as necessary to evaluate marker lesions. After the completion of chemotherapy, each patient was restaged with all the tests used during the initial work-up. The eligibility, evaluability and response of each patient were assessed by extramural reviewers. […] The duration of each response was defined as the number of days from the documentation of response until tumour progression. ECOG common toxicity criteria were used to grade organ damage. The maximum tolerated dose was defined as the dose causing grade 3-4 nonhematologic toxicity (except nausea and vomiting) in at least one-third of the cycles and/or grade 3-4 hematologic toxicity in at least two-third of the cycles included at that level. […] The statistical significance of differ- ences in peak plasma concentrations (Cmax) was determined using unpaired, two-tailed Student's t test. Other statistical analysis was performed using Chi-square test or Fisher's exact test. A P value of less than 0.05 was considered to be statistically significant.

[3] = tested on: patients with advanced NSCLC; conditions: ref Masuda et al., 1992b, cited from earlier work
[4] = ref Negoro et al., 1991a, cited from earlier work; for AUC of CPT-11: single agent weekly infusion
[5] = tested on: diarrhea induced by this combination regimen; assay: Antidiarrheal treatment of diarrhea induced by CPT-11 plus cisplatin; format: in vivo, human; conditions: for response of grade 3 diarrhea to antidiarrheal agent: diarrhea at CPT-11 90 mg m-2 plus cisplatin 60 mg m-2
Protocol: as §1

[6] = dose level 1 (CPT-11 60 mg m-2), individual responders
[7] = dose level 2 (CPT-11 80 mg m-2)
[8] = dose level 3 (CPT-11 90 mg m-2), one responder
[9] = CPT-11 60 mg m-2 plus cisplatin 60 mg m-2, 3 patients
[10] = CPT-11 80 mg m-2 plus cisplatin 60 mg m-2
[11] = CPT-11 80 mg m-2 plus cisplatin 60 mg m-2, 8 patients
[12] = CPT-11 90 mg m-2 plus cisplatin 60 mg m-2
[13] = CPT-11 plus cisplatin 60 mg m-2, 28-day cycle
[14] = all dose levels, CPT-11 plus cisplatin 60 mg m-2

Question: Which results are given for CCc1c2c(nc3ccc(OC(=O)N4CCC(N5CCCCC5)CC4)cc13)-c1cc3c(c(=O)n1C2)COC(=O)[C@]3(O)CC [CPT-11, Irinotecan]?
Answer: Elimination of CPT-11 from plasma ([1]; after completion of infusion, two-compartment model): biphasic; patients showing disease progression (advanced lung cancer; all 14 patients): none; patients showing no change (advanced lung cancer; all 14 patients): Eight; overall response rate (advanced lung cancer; all 14 patients, CPT-11 60-90 mg m-2 plus cisplatin 60 mg m-2): 43%; Response duration (advanced lung cancer; [6]): 85 days and 170 days; Time to remission (advanced lung cancer; [6]): 42 days and 44 days; No. of responders (%), response rate (advanced lung cancer; dose level 1: CPT-11 60 mg m-2 plus cisplatin 60 mg m-2, two of three patients): 67%; Response duration, median (range) (advanced lung cancer; [7]): 158 (92-208) days; Time to remission, median (range) (advanced lung cancer; [7]): 41 (30-42) days; No. of responders (%), response rate (advanced lung cancer; dose level 2: CPT-11 80 mg m-2 plus cisplatin 60 mg m-2, three of eight patients): 38%; Response duration (advanced lung cancer; [8]): 98 days; Time to remission (advanced lung cancer; [8]): 30 days; No. of responders (%), response rate (advanced lung cancer; dose level 3: CPT-11 90 mg m-2 plus cisplatin 60 mg m-2, one of three patients): 33%; partial responses (advanced lung cancer; five of 14 patients): 36%; response rate for NSCLC (advanced lung cancer; four of 12 patients): 33%; complete response (advanced lung cancer; one of 14 patients): 7%; complete response, stage IIIB disease (advanced lung cancer; one of seven patients): 14%; overall response rate, stage IIIB disease (advanced lung cancer; seven patients): 43%; partial response, stage IV disease (advanced lung cancer; three of seven patients): 43%; Response duration, median (range) (advanced lung cancer; total, all dose levels): 128 (85-208) days; Time to remission, median (range) (advanced lung cancer; total, all dose levels): 42 (30-44) days; partial responses, stage IIIB disease (advanced lung cancer; two of seven patients): 29%; response rate for SCLC (advanced lung cancer; two of two patients): 100%; Grade 3 leukopenia, percentage of courses ([2]; CPT-11 60 mg m-2 plus cisplatin 60 mg m-2): 33%; ECOG grade 3 or 4 diarrhea: number of patients exhibiting toxicity in the first course [2, 9]: 0; ECOG grade 3 or 4 leukopenia: number of patients exhibiting toxicity in the first course [2, 9]: 2; ECOG grade 3 or 4 diarrhea: no. of courses exhibiting toxicity in all courses ([2]; CPT-11 60 mg m-2 plus cisplatin 60 mg m-2, 9 courses): 0; Grade 3 leukopenia, percentage of courses [2, 10]: 15%; grade 4 diarrhea [2, 10]: no grade 4 diarrhea; ECOG grade 3 or 4 diarrhea: number of patients exhibiting toxicity in the first course [2, 11]: 2; ECOG grade 3 or 4 leukopenia: number of patients exhibiting toxicity in the first course [2, 11]: 2; ECOG grade 3 or 4 diarrhea: no. of courses exhibiting toxicity in all courses ([2]; CPT-11 80 mg m-2 plus cisplatin 60 mg m-2, 20 courses): 3; skin rash (grade 1), number of patients ([2]; CPT-11 80 mg m-2 plus cisplatin 60 mg m-2, forced cessation of CPT-11 on day 15): one; grade 3 diarrhea, percentage of cycles ([2]; CPT-11 80 mg m-2 plus cisplatin 60 mg m-2, three of 20 cycles): 15%; grade 3 diarrhea, percentage of patients ([2]; CPT-11 80 mg m-2 plus cisplatin 60 mg m-2, two of eight patients): 25%; dose-limiting toxicity ([2]; CPT-11 90 mg m-2 dose level plus cisplatin 60 mg m-2): diarrhea; Grade 3 leukopenia, percentage of courses [2, 12]: 0%; duration of grade 3 diarrhea [2, 12]: 2 to 3 weeks; grade 4 diarrhea [2, 12]: no grade 4 diarrhea; ECOG grade 3 or 4 leukopenia: number of patients exhibiting toxicity in the first course ([2]; CPT-11 90 mg m-2 plus cisplatin 60 mg m-2, 3 patients): 0; maximum tolerated dose of CPT-11 ([2]; CPT-11 i.v. days 1, 8, 15 plus cisplatin 60 mg m-2 day 1, every 28 days): 90 mg m-2; leukocyte nadir [2, 13]: ~21 days; recovery from leukocyte nadir in most patients [2, 13]: ≤ 29 days; recommended dose for Phase II studies ([2]; CPT-11 days 1, 8, 15 plus cisplatin day 1 at 4-week intervals): 80 mg m-2; Grade 3 leukopenia, number of patients ([2]; all dose levels, CPT-11 60-90 mg m-2 plus cisplatin 60 mg m-2, 14 patients): five; Grade 3 leukopenia, number of cycles ([2]; all dose levels, CPT-11 60-90 mg m-2 plus cisplatin 60 mg m-2, 33 courses): six; Hematologic toxicity [2, 14]: relatively mild; grade 4 leukopenia, patients [2, 14]: none; hepatic, renal, or pulmonary toxicity [2, 14]: no evidence; Grade 3 nausea and vomiting, percentage of courses ([2]; all dose levels, 10 of 33 courses): 30%; Grade 2 alopecia, percentage of courses ([2]; all dose levels, 15 of 33 courses): 45%; Transient eosinophilia ( > 10%), percentage of courses ([2]; all dose levels, seven of 33 courses): 21%; Grade 3 anaemia, percentage of courses ([2]; all dose levels, two occasions in 33 courses): 6%; response rate ([3]; CPT-11 days 1, 8, 15 combined with 80 mg m-2 cisplatin day 1, 4-week intervals, advanced NSCLC): 54%; dose-limiting toxicities ([3]; combined with 80 mg m-2 cisplatin): leukopenia and diarrhea; recommended dose of CPT-11 ([3]; in combination with 80 mg m-2 of cisplatin, days 1, 8, 15): 60 mg m-2; AUC of CPT-11 ([4]; 50 mg m-2): 2.97 ytg ml-' x hours; AUC of CPT-11 ([4]; 100 mg m-2): 6.37 ytg ml-' x hours; AUC of CPT-11 ([4]; 125 mg m-2): 9.17 ytg ml-' x hours; AUC of CPT-11 ([4]; 150 mg m-2): 11.29 ytg ml-' x hours; dose intensity achieved as a single agent ([4]; weekly intravenous infusion): 100 mg m-2 per week

Question: Which results are given for CCc1c2c(nc3ccc(O)cc13)-c1cc3c(c(=O)n1C2)COC(=O)[C@]3(O)CC [SN-38, 7-ethyl-10-hydroxycamptothecin]?
Answer: AUC ([1]; human, in vivo, 80 mg): 216 ng·h/mL; AUC ([1]; human, in vivo, 90 mg): 340 ng·h/mL; SN-38 terminal half-life, mean (s.d.) ([1]; human, in vivo, 90 mg): 22.13 ? 13.28 h; half-life ([1]; human, in vivo, 90 mg): 22.1 ± 13.3 h; AUC of SN-38 ([4]; single-agent CPT-11 50 mg m-2): 117 ng ml-1 x hours; AUC of SN-38 ([4]; single-agent CPT-11 125 mg m-2): 252 ng ml-1 x hours

Question: For CN1[C@@H]2CC[C@H]1C[C@@H](OC(=O)C(CO)c1ccccc1)C2 (stereo partly drawn) [atropine], which “response of grade 3 diarrhea to antidiarrheal agent” value (shortened to “response of grade 3 diarrhea”) [5] is on record?
Answer: refractory

Question: Which “response of grade 3 diarrhea” value [5] does the source give for COc1ccc2c3c1O[C@H]1[C@@H](O)C=C[C@H]4[C@@H](C2)N(C)CC[C@@]341 [codeine phosphate] here?
Answer: resistant

Question: Which “response of grade 3 diarrhea” value [5] does the source give for CN1[C@@H]2C[C@@H](OC(=O)[C@H](CO)c3ccccc3)C[C@H]1[C@@H]1O[C@@H]12 [scopolamine] here?
Answer: refractory

Question: With albumin tannate as the molecule, how does the “response of grade 3 diarrhea” value [5] read?
Answer: refractory

Question: Which “effect on grade 3 diarrhea induced by CPT-11 plus cisplatin” value ([5]; 50-100 ug subcutaneously t.i.d. for at least 2 days, three patients) does the source give for sandostatin here?
Answer: ineffective
